This is an account of results in paper PMC9286623.

A short description of the data set: head-to-tail macrolactamisation of side-chain-protected linear peptides (crude from 2-ClTrt resin, TFE cleavage); DEPBT (2-2.5 equiv), NEt3 (10-12 equiv), 24 h; AcOH quench, prep HPLC. Conditions: MeCN with <1-10% DMSO (3i: 5% DMF in MeCN), 2.0 mM, 25.0 °C.

As to `CC[C@H](C)[C@@H]1NC(=O)[C@@H]2CCCN2C(=O)[C@H](CCCCNC(=O)OC(C)(C)C)NC(=O)[C@H](CSC(c2ccccc2)(c2ccccc2)c2ccccc2)NC(=O)[C@H](Cc2cn(C(=O)OC(C)(C)C)c3ccccc23)NC(=O)[C@H]([C@@H](C)OC(C)(C)C)NC(=O)[C@@H]2CCCN2C1=O` [H-Cys(Trt)-Lys(Boc)-Pro-Ile-Pro-Thr(tBu)-Trp(Boc)-OH], for the setting “from CC[C@H](C)[C@H](NC(=O)[C@@H]1CCCN1C(=O)[C@H](CCCCNC(=O)OC(C)(C)C)NC(=O)[C@@H](N)CSC(c1ccccc1)(c1ccccc1)c1ccccc1)C(=O)N1CCC[C@H]1C(=O)N[C@H](C(=O)N[C@@H](Cc1cn(C(=O)OC(C)(C)C)c2ccccc12)C(=O)O)[C@@H](C)OC(C)(C)C, 21-membered ring”, the ring closure, isolated yield was 0%.

As for `Cc1c(C)c(S(=O)(=O)NC(=N)NCCC[C@@H]2NC(=O)[C@H](C)NC(=O)[C@H](CSC(c3ccccc3)(c3ccccc3)c3ccccc3)NC(=O)[C@H]([C@@H](C)OC(C)(C)C)NC(=O)[C@H](CSC(c3ccccc3)(c3ccccc3)c3ccccc3)NC2=O)c(C)c2c1OC(C)(C)C2` [H-Arg(Pbf)-Cys(Trt)-Thr(tBu)-Cys(Trt)-Ala-OH], the ring closure, isolated yield (from Cc1c(C)c(S(=O)(=O)NC(=N)NCCC[C@H](N)C(=O)N[C@@H](CSC(c2ccccc2)(c2ccccc2)c2ccccc2)C(=O)N[C@H](C(=O)N[C@@H](CSC(c2ccccc2)(c2ccccc2)c2ccccc2)C(=O)N[C@@H](C)C(=O)O)[C@@H](C)OC(C)(C)C)c(C)c2c1OC(C)(C)C2, 15-membered ring, 24.0 h) came out at 16%.

`Cc1c(C)c(S(=O)(=O)NC(=N)NCCC[C@@H]2NC(=O)[C@H](C)NC(=O)[C@H](Cc3cn(C(=O)OC(C)(C)C)c4ccccc34)NC(=O)[C@H]([C@@H](C)OC(C)(C)C)NC(=O)[C@@H]3CCCN3C2=O)c(C)c2c1OC(C)(C)C2` [H-Arg(Pbf)-Pro-Thr(tBu)-Trp(Boc)-Ala-OH]: the ring closure, isolated yield (from Cc1c(C)c(S(=O)(=O)NC(=N)NCCC[C@H](N)C(=O)N2CCC[C@H]2C(=O)N[C@H](C(=O)N[C@@H](Cc2cn(C(=O)OC(C)(C)C)c3ccccc23)C(=O)N[C@@H](C)C(=O)O)[C@@H](C)OC(C)(C)C)c(C)c2c1OC(C)(C)C2, 15-membered ring, 24.0 h) is 0%.

As for `CC(C)C[C@@H]1NC(=O)[C@H](CC(C)C)NC(=O)[C@H](CC(=O)NC(c2ccccc2)(c2ccccc2)c2ccccc2)NC(=O)[C@@H]2CCCN2C(=O)[C@@H]2CCCN2C(=O)[C@H](CSC(c2ccccc2)(c2ccccc2)c2ccccc2)NC(=O)[C@H](CC(C)C)NC(=O)[C@H](CCC(=O)OC(C)(C)C)NC1=O` [H-Glu(OtBu)-Leu-Cys(Trt)-Pro-Pro-Asn(Trt)-Leu-Leu-OH], for the setting “from CC(C)C[C@H](NC(=O)[C@H](CC(C)C)NC(=O)[C@H](CC(=O)NC(c1ccccc1)(c1ccccc1)c1ccccc1)NC(=O)[C@@H]1CCCN1C(=O)[C@@H]1CCCN1C(=O)[C@H](CSC(c1ccccc1)(c1ccccc1)c1ccccc1)NC(=O)[C@H](CC(C)C)NC(=O)[C@@H](N)CCC(=O)OC(C)(C)C)C(=O)O, 24-membered ring, 24.0 h”, the ring closure, isolated yield turned out to be 26%.
